Results: US20240182407A1, “QUINOLINE COMPOUND SALT OR CRYSTAL FORM, PREPARATION METHOD THEREFOR, AND APPLICATION THEREOF” (Nanjing Zenshine Pharmaceuticals Co., Ltd., priority 2021, published 2024)
Values after ≈ are worked out from the molar mass of the structure shown. Values joined by “and” are separate entries in the source; they are usually repeats but may differ in a detail not shown here. Equal values may be shown once.

Assays:
[1] = Solubility in simulated gastrointestinal fluids (SGF, FeSSIF, FaSSIF) at 37° C.; assay type: physicochemical; conditions: for Solubility: 37° C.
Method: The solubilities of Compound A and p-toluenesulfonate (Sample 5, crystal form I) in simulated gastrointestinal fluids (SGF, FeSSIF and FaSSIF) at 37° C. were tested.
About 7.5 mg of Compound A and p-toluenesulfonate were separately added to 1.5 mL of three biological vehicles to prepare suspensions. All the suspensions were placed in a shaker at 37° C. and shaken at 200 rpm for 24 h, and about 0.5 mL was sampled separately at 0.5 h, 2 h and 24 h for filtration. The obtained filtrates were subjected to HPLC analysis and pH measurement, and the filter cakes were respectively measured by XRPD.

[2] = Solid stability, 40° C./75% RH and 60° C., one week (HPLC purity, XRPD); assay type: physicochemical; conditions: solid
Method: Appropriate amounts of Compound A and p-toluenesulfonate of Compound A (Sample 5, crystal form I) were respectively placed in 40° C./75% RH and 60° C. environments for one week to determine solid stability. At days 0 and 7, HPLC purity analysis and solid XRPD determination were carried out, and some of the results were as shown in Table 7.

[3] = system: human-derived lymphoma DoHH-2 cell line; experiment: Human-derived lymphoma DoHH-2 subcutaneous xenograft in CB17/SCID female immunodeficient mice; assay type: in vivo, mouse; conditions: 50 mg/kg p.o. BID, Day 24
Method: In Example 8, the anti-tumor effects of p-toluenesulfonate of Compound A at various dosages by intragastric administration on human-derived lymphoma DoHH-2 cell line subcutaneous transplantation CB17/SCID female immunodeficient mouse model were evaluated.
7-9-week-old CB17/SCID female immunodeficient mice were subcutaneously inoculated with […] DoHH-2 cells to establish a subcutaneous human lymphoma xenograft tumor model. When the average tumor volume in the mice reached 68 mm^3, the mice were randomly divided into groups and dosed on the day of grouping. The treatment method for each treatment group and vehicle control group was as follows:
p-toluenesulfonate of Compound A (Sample 6), given 100 mg/kg (p.o. QD) group, once daily, for 25 days (days 0-24);
p-toluenesulfonate of Compound A (Sample 6), given 30 mg/kg (p.o. QD) group, once daily, for 25 days (days 0-24);
positive treatment group (Duvelisib, purchased from Shanghai Lollane biological technology Co., Ltd.), given 50 mg/kg (p.o. BID) twice daily with an interval of 12 h, for 24 days; and
vehicle control group (5% DMSO/40% PEG400/55% water, by volume) (p.o. QD), given once daily, for 25 days (days 0-24).
There were 10 mice in each group, and all the mice were administered starting on the day of grouping (Day 0) and euthanized on Day 24 after grouping (Day 24). The efficacy was evaluated according to the tumor volume at the end point of the experiment.
The abbreviation p.o. stood for oral gavage, QD stood for once daily, and BID stood for twice daily.
The relative tumor inhibition rate (TGI) was calculated by the following formula: […]
T and C were respectively the average tumor volumes in the experimental group and the vehicle control group at a specific time point.

## C[C@H](Nc1nc(N)nc(N)c1C#N)c1cc2ccc(F)cc2nc1-c1ccccn1 [Compound A]
[1]; FaSSIF (pH 6.52), 0.5 h
  pH of filtrate: 6.55
[1]; FaSSIF (pH 6.52), 2 h
  pH of filtrate: 6.51
[1]; FaSSIF (pH 6.52), 24 h
  pH of filtrate: 6.34
[1]; FaSSIF, 37 °C, pH 6.52, fassif, thermodynamic from solid, FaSSIF (pH 6.52), 30 min
  solubility at 30 min: 370 µg/mL (≈ 924 µM)
[1]; FaSSIF, 37 °C, pH 6.52, fassif, thermodynamic from solid, FaSSIF (pH 6.52), 2 h
  solubility at 2 h: 320 µg/mL (≈ 799 µM)
[1]; FaSSIF, 37 °C, pH 6.52, fassif, thermodynamic from solid, FaSSIF (pH 6.52), 24 h
  solubility at 24 h: 350 µg/mL (≈ 874 µM)
[1]; FeSSIF (pH 4.99), 30 min
  Solubility: 2060 µg/mL (≈ 5140 µM)
[1]; FeSSIF (pH 4.99), 2 h
  Solubility: 1890 µg/mL (≈ 4720 µM)
  pH of filtrate: 4.94
[1]; FeSSIF (pH 4.99), 24 h
  Solubility: 2200 µg/mL (≈ 5490 µM)
  pH of filtrate: 4.86
[1]; FeSSIF (pH 4.99), 0.5 h
  pH of filtrate: 5.00
[1]; SGF (pH 1.21), 30 min
  Solubility: >4920 µg/mL
[1]; SGF (pH 1.21), 2 h
  Solubility: >4910 µg/mL
  pH of filtrate: 1.16
[1]; SGF (pH 1.21), 24 h
  Solubility: >4830 µg/mL
  pH of filtrate: 1.18
[1]; SGF (pH 1.21), 0.5 h
  pH of filtrate: 1.19
[2]; 40° C./75% RH, 7 d, average
  Purity (peak area %) Average - 40° C./75% RH - 7 d: 98.49 peak area %
[2]; 40° C./75% RH, 7 d, single determinations
  Purity (peak area %) 40° C./75% RH - 7 d: 98.52 peak area % and 98.45 peak area %
[2]; 60° C., 7 d, average
  Purity (peak area %) Average - 60° C. - 7 d: 98.43 peak area %
[2]; 60° C., 7 d, single determinations
  Purity (peak area %) 60° C. - 7 d: 98.37 peak area % and 98.50 peak area %
[2]; 60° C., 7 days
  decrease of chemical purity: about 0.16%
[2]; day 0, average
  Purity (peak area %) Average - 0 d: 98.59 peak area %
[2]; day 0, single determinations
  Purity (peak area %) 0 d: 98.63 peak area % and 98.55 peak area %

## C[C@H](Nc1ncnc2nc[nH]c12)c1cc2cccc(Cl)c2c(=O)n1-c1ccccc1 [Duvelisib, reference compound]
[3]
  average tumor volume: 1496.12 mm^3
  relative tumor inhibition rate (TGI): 30%
